Measurements as given in ChEMBL document CHEMBL4321795, “Metabolism by Aldehyde Oxidase: Drug Design and Complementary Approaches to Challenges in Drug Discovery” (J Med Chem, 2019).

Key:
[1] = Clearance in human plasma; type: ADME, cell-free
Cytochrome P450 3A4 [2] = target: T1, Cytochrome P450 3A4 (Homo sapiens, UniProt P08684); assay: Substrate activity at human CYP3A4 assessed as increase in midazolam AUC relative to control; type: ADME
Cytochrome P450 3A4 [3] = target: T1, Cytochrome P450 3A4; assay: Substrate activity at human CYP3A4 assessed as increase in atorvastatin AUC relative to control; type: ADME
Cytochrome P450 3A4 [4] = target: T1, Cytochrome P450 3A4; assay: Substrate activity at human CYP3A4 assessed as increase in methyl-prednisolone AUC relative to control; type: ADME
[5] = Oral bioavailability in human; type: ADME, organism-based; conditions: in vivo
[6] = Drug level in human plasma treated with imrecoxib at 100 mg, po measured up to 96 hrs by UPLC/Q-TOF MS analysis; type: ADME, organism-based; conditions: in vivo
Aldehyde oxidase 1 [7] = target: T2, Aldehyde oxidase 1 (Rattus norvegicus, UniProt Q9Z0U5); assay: Substrate activity at aldehyde oxidase in rat liver cytosol assessed as enzyme-mediated drug uptake at 1 uM; type: ADME, subcellular
T2 sequence (Q9Z0U5 whole entry): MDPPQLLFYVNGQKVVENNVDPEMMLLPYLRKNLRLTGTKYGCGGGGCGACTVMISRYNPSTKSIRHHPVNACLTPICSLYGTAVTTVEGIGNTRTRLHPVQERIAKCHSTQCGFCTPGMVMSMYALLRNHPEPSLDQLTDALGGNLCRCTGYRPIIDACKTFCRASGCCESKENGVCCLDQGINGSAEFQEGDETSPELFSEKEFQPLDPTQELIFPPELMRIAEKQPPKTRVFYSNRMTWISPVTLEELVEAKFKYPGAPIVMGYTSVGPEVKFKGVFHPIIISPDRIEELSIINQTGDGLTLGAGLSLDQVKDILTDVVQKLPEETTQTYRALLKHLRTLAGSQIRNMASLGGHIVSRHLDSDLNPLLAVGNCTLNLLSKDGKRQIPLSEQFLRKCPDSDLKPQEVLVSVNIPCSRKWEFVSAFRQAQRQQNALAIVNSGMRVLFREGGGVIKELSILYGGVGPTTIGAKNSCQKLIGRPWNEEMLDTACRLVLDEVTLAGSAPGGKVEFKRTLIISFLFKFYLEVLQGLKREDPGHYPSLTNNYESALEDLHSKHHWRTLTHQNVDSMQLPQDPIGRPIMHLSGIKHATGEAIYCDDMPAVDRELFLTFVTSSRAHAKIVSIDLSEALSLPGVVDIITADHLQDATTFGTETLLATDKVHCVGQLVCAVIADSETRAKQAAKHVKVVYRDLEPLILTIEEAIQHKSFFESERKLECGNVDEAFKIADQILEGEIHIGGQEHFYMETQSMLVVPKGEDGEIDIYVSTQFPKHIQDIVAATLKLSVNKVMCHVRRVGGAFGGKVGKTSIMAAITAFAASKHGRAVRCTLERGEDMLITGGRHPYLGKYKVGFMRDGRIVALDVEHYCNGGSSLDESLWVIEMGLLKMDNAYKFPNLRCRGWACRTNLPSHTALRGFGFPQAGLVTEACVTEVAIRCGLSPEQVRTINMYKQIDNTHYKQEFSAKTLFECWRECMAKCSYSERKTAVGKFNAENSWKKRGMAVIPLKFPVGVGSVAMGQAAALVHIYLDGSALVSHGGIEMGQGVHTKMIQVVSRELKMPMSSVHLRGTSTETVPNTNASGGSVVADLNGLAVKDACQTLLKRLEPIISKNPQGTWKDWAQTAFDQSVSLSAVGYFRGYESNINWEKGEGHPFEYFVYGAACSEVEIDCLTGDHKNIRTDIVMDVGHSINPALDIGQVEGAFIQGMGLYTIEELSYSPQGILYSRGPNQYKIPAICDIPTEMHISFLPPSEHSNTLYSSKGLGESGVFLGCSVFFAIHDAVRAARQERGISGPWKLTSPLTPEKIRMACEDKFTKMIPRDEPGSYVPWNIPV

Aldehyde oxidase [8] = target: T3, Aldehyde oxidase (Homo sapiens, UniProt Q06278); assay: Substrate activity at aldehyde oxidase in human liver cytosol assessed as enzyme-mediated drug uptake at 1 uM; type: ADME, subcellular
T3 sequence (Q06278 whole entry): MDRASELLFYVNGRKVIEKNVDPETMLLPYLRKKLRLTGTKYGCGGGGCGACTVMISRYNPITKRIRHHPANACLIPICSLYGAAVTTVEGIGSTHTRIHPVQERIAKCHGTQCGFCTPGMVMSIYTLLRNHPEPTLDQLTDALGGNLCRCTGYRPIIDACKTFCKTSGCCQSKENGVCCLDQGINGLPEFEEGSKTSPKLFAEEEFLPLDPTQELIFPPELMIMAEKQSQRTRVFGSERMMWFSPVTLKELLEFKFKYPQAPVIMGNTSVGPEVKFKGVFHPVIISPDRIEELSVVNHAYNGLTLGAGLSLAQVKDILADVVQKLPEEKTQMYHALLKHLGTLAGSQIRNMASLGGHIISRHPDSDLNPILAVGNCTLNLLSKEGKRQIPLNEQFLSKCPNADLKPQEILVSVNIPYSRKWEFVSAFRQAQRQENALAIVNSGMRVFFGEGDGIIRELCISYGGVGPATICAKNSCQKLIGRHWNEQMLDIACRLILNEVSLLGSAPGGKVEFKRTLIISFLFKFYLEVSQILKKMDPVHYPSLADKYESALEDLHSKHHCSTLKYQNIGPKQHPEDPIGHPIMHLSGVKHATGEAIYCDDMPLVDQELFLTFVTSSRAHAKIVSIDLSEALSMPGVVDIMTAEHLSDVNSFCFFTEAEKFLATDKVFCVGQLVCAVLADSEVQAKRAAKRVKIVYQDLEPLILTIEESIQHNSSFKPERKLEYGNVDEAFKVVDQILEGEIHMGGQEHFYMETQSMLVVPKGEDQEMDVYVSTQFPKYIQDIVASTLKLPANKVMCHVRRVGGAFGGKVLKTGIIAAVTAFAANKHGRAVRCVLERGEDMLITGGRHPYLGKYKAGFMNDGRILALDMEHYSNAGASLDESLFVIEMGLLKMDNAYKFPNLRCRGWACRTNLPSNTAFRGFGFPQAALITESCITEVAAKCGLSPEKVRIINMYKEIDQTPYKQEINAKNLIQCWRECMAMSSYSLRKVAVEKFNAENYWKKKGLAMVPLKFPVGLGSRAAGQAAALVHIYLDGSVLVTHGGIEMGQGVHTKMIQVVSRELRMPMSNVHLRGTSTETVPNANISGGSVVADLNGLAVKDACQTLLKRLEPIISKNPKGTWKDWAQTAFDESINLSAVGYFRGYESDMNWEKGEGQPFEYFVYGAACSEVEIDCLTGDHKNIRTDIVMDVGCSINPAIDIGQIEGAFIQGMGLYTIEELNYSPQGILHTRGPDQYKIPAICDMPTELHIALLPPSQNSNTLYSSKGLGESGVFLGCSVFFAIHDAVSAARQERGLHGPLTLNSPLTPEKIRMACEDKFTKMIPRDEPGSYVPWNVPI

Aldehyde oxidase 1 [9] = target: T4, Aldehyde oxidase 1 (Cavia porcellus, UniProt H9TB17); assay: Substrate activity at aldehyde oxidase in guinea pig liver cytosol assessed as enzyme-mediated drug uptake at 1 uM; type: ADME, subcellular
T4 sequence (H9TB17 whole entry): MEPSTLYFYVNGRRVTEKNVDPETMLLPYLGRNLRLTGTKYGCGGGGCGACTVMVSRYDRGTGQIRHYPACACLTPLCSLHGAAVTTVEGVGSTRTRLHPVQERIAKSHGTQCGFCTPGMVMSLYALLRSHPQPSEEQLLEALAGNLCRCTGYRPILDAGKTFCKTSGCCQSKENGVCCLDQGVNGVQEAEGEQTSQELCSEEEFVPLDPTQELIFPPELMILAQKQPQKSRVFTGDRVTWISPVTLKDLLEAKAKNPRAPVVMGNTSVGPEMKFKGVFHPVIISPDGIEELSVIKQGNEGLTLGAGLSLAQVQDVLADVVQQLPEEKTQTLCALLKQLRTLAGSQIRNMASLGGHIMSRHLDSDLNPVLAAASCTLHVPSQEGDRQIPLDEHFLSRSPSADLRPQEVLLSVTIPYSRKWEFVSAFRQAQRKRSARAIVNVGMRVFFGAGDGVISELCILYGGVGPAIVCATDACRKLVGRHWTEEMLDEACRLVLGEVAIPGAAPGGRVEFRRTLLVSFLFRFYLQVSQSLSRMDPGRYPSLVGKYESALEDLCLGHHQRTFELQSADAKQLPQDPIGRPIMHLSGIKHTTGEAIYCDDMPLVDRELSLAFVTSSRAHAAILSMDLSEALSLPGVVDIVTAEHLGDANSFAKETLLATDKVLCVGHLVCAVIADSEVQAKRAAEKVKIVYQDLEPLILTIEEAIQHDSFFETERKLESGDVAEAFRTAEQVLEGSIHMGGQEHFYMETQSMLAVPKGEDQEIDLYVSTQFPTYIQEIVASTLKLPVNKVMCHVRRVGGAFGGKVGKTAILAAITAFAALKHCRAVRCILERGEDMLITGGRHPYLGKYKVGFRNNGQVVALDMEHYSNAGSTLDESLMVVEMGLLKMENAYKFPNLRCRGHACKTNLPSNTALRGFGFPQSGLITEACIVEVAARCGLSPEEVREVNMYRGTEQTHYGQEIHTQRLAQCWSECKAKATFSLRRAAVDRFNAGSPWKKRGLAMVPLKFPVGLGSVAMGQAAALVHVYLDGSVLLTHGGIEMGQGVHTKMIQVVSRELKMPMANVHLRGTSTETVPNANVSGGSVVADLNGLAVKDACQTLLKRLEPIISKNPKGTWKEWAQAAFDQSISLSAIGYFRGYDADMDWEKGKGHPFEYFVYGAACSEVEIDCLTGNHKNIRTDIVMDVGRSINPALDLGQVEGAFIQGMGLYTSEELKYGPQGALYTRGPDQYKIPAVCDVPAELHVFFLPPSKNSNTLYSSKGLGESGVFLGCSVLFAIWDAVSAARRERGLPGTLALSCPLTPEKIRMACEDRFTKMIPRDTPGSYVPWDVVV

Aldehyde oxidase [10] = target: T3, Aldehyde oxidase; assay: Substrate activity at aldehyde oxidase in human hepatocytes assessed as enzyme-mediated drug uptake at 1 uM; type: ADME, cell-based
Aldehyde oxidase [11] = target: T3, Aldehyde oxidase; assay: Substrate activity at aldehyde oxidase in human liver S9 fractions assessed as enzyme-mediated 2-oxo metabolite formation by measuring half life at 1 uM after 10 to 120 mins by liquid chromatography-tandem mass spectrometry; type: ADME, subcellular; conditions: s9, 1 µM
Aldehyde oxidase 1 [12] = target: T4, Aldehyde oxidase 1; assay: Substrate activity at aldehyde oxidase in guinea pig liver cytosol assessed as enzyme-mediated drug uptake by mass spectrophotometric analysis; type: ADME, subcellular
Aldehyde oxidase [13] = target: T3, Aldehyde oxidase; assay: Substrate activity at aldehyde oxidase in human liver cytosol assessed as enzyme-mediated drug uptake by mass spectrophotometric analysis; type: ADME, subcellular
Aldehyde oxidase 1 [14] = target: T2, Aldehyde oxidase 1; assay: Substrate activity at aldehyde oxidase in rat liver cytosol assessed as enzyme-mediated drug uptake by mass spectrophotometric analysis; type: ADME, subcellular
Aldehyde oxidase [15] = target: T3, Aldehyde oxidase; assay: Substrate activity at aldehyde oxidase in human liver cytosol assessed as enzyme-mediated M2 metabolite formation at 10 uM after 90 mins by LC-MS/MS analysis; type: ADME, subcellular
[16] = Oral bioavailability in BDF1 mouse at 50 mg/kg after 2 to 24 hrs by HPLC analysis; type: ADME, organism-based; conditions: in vivo
[17] = Oral bioavailability in BDF1 mouse at 25 mg/kg after 2 to 24 hrs by HPLC analysis; type: ADME, organism-based; conditions: in vivo
Aldehyde oxidase [18] = target: T3, Aldehyde oxidase; assay: Drug level in human plasma treated with [14C]momelotinib assessed as aldehyde oxidase mediated compound formation at 200 mg, po measured at 24 hrs interval for 504 hrs post dose by liquid scintillation counting; type: ADME, organism-based; conditions: in vivo
Aldehyde oxidase 1 [19] = target: T2, Aldehyde oxidase 1; assay: Drug level in Sprague-Dawley rat plasma treated with [14C]momelotinib assessed as aldehyde oxidase mediated compound formation at 15 mg/kg, po measured up to 48 hrs by liquid scintillation counting; type: ADME, organism-based; conditions: in vivo
[20] = Drug level in Beagle dog plasma treated with [14C]momelotinib at 15 mg/kg, po measured up to 12 hrs by liquid scintillation counting; type: ADME, organism-based, Canis lupus familiaris; conditions: in vivo

T1 sequence (P08684 whole entry): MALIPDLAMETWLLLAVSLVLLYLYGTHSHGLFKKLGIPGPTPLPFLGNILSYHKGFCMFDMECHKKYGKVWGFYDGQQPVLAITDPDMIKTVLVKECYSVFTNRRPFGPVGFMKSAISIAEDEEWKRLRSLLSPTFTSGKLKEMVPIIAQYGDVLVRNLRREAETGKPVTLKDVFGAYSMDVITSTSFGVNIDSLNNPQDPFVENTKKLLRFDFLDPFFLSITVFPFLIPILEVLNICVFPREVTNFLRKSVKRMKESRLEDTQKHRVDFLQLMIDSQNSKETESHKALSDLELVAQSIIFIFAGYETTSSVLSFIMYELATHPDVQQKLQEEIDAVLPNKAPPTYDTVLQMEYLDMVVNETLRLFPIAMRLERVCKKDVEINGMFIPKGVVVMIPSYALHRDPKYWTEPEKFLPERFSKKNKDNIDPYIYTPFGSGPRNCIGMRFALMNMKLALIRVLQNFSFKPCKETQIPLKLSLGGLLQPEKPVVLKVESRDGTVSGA

Cn1cc(-c2ccc3nnc(C(F)(F)c4ccc5ncccc5c4)n3n2)cn1 [JNJ-38877605]
clearance [1]: 12 mL/min/kg

CC[C@@](C)(Nc1ccnc(-c2c[nH]c3ncccc23)n1)C(=O)NCC(F)(F)F [DECERNOTINIB]
fold change (FC) (Cytochrome P450 3A4 [2]): 12
fold change (FC) (Cytochrome P450 3A4 [3]): 2.7
fold change (FC) (Cytochrome P450 3A4 [4]): 4.3

Nc1nc2c(ncn2CCC(CO)CO)c(=O)[nH]1 [PENCICLOVIR]
bioavailability [5]: 77%

CCCN1CC(c2ccc(S(C)(=O)=O)cc2)=C(c2ccc(C(=O)O)cc2)C1=O
Drug uptake [6]: 68%

N=C(N)NC(=O)c1cnn(-c2cccc3ncccc23)c1C1CC1 [ZONIPORIDE]
K (Aldehyde oxidase 1 [7]): 3.6 to 6.1
K (Aldehyde oxidase [8]): 3.6 to 6.1
K (Aldehyde oxidase 1 [9]): 3.6 to 6.1
K (Aldehyde oxidase [10]): 1.9

N=C(N)NC(=O)c1cnn(-c2ccc3ncccc3c2)c1C1CC1
t1/2 (Aldehyde oxidase [11]): < 0.083 h

CCNC(=O)OC1CCN(c2nncc3cc(OC)c(OC)cc23)CC1 [CARBAZERAN]
K (Aldehyde oxidase 1 [7]): 3.6 to 6.1
K (Aldehyde oxidase [8]): 3.6 to 6.1
K (Aldehyde oxidase 1 [9]): 3.6 to 6.1
K (Aldehyde oxidase [10]): 1.5

c1ccc2cnncc2c1 [PHTHALAZINE]
K (Aldehyde oxidase 1 [12]): 4.7 to 5.1
K (Aldehyde oxidase [13]): 4.7 to 5.1
K (Aldehyde oxidase 1 [14]): 4.7 to 5.1

CCCN1CC(c2ccc(S(C)(=O)=O)cc2)=C(c2ccc(C=O)cc2)C1=O
Activity (Aldehyde oxidase [15]): 77%

c1ccc2nccnc2c1 [QUINOXALINE]
K (Aldehyde oxidase 1 [12]): 4.7 to 5.1
K (Aldehyde oxidase [13]): 4.7 to 5.1
K (Aldehyde oxidase 1 [14]): 4.7 to 5.1

Oc1ncc(F)cn1
bioavailability [16]: 78%
bioavailability [17]: 100%

COCCc1c(C(=O)NC(=N)N)cnn1-c1cccc2ncccc12
t1/2 (Aldehyde oxidase [11]): 2 h

N#CCNC(=O)c1ccc(-c2ccnc(Nc3ccc(N4CCOCC4=O)cc3)n2)cc1
Drug uptake (Aldehyde oxidase [18]): 64.2%
Drug uptake (Aldehyde oxidase 1 [19]): < 10%
Drug uptake [20]: < 10%

c1ccc2ncccc2c1 [QUINOLINE]
K (Aldehyde oxidase 1 [7]): 3.6 to 6.1
K (Aldehyde oxidase [8]): 3.6 to 6.1
K (Aldehyde oxidase 1 [9]): 3.6 to 6.1
